Test results published in patent US12091402B2 (Avilar Therapeutics, Inc., priority 2021, dated 2024).
Where two headings read alike, the source gives them in different places.

Key:
ASGPR = target: T1, ASGPR (Homo sapiens, UniProt P07306); test: Affinity to ASGPR by surface plasmon resonance (SPR)
T1 sequence (P07306 1-291): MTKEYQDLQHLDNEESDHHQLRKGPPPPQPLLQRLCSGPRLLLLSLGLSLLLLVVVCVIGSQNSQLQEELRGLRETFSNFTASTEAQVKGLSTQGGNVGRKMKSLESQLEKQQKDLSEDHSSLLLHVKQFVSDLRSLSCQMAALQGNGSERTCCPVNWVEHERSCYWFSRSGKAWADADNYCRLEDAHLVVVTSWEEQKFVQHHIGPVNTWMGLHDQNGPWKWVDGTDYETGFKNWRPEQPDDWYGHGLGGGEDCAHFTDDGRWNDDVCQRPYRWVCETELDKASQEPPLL

[1] = target: T2, ASGPR receptor on the cell surface (HepG2 cells) (Homo sapiens, UniProt P07306); test: Ternary complex formation assay (flow cytometry, HepG2); format: cell-based
T2 construct: host or cells: HepG2
T2 sequence (P07306 1-291): T1 sequence (P07306 1-291)
T2 sequence (P07307 1-311 partner): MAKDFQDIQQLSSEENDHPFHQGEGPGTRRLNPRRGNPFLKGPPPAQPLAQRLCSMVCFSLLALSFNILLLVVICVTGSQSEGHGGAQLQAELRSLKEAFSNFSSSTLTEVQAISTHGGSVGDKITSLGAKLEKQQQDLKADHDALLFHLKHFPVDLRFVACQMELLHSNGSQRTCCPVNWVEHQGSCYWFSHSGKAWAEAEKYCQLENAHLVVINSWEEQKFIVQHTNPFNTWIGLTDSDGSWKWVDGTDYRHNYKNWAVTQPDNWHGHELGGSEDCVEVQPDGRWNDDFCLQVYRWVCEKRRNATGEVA
Summary of the method: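 HepG2 cells (1×10^5/well) incubated 1 h at 4 °C with 100 nM AF488-labeled anti-human IgG plus serial IgG-based degrader, or 100 nM AF488 rabbit anti-DNP plus serial DNP-based degrader. After washing, cell-associated AF488 MFI read by flow cytometry; peak MFI marks optimal degrader concentration for ternary complex.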

IgG = test: Affinity to IgG by surface plasmon resonance (SPR); format: binding
Protocol: Immobilization levels ranging from 1000-1300 resonance units (RU) are obtained. The running buffer is 10 mM HEPES, pH 7.4, 400 mM NaCl, 0.005% P20, […].

HepG2 cells = test: Cellular uptake assay of AF488-labeled antibody (HepG2); format: cell-based
Summary of the method: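 HepG2 cells given 100 nM AF488-labeled human IgG or DNP antibody plus serial dilutions of matching degrader (0.1% DMSO final), 6 h at 37° C. Methanol-fixed, DAPI-stained and imaged by high-content analysis. Value is the fraction of AF488-positive cells over total DAPI-counted cells.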

[2] = Biacore 8K, 25° C., IgG on CM5 chip, read-out: IgG SPR Binding Kd
[3] = HepG2 cells, 100 nM AF488-labeled antibody, 37° C. for 6 hours, class symbols, read-out: Uptake Assay EC50
[4] = HepG2 cells, read-out: Uptake EC50
[5] = HepG2 cells, ternary complex formation, read-out: TCF EC50

CC(C)C[C@@H]1NC(=O)[C@H](Cc2c[nH]cn2)NC(=O)[C@H](Cc2c[nH]c3ccccc23)NC(=O)[C@H](C)NC(=O)[C@@H](NC(=O)[C@H](CC(=O)O)NCCOCCOCCOCCOCCNC(=O)CCCc2cn(CCCCCC(=O)NC(COCCC(=O)NCCOCCOCCOCCOC[C@H]3OC[C@H](Nc4nccc(C(F)(F)F)n4)[C@@H](O)[C@H]3O)COCCC(=O)NCCOCCOCCOCCOC[C@H]3OC[C@H](Nc4nccc(C(F)(F)F)n4)[C@@H](O)[C@H]3O)nn2)CSSC[C@@H](C(=O)N[C@H](C(N)=O)[C@@H](C)O)NC(=O)[C@H](Cc2c[nH]c3ccccc23)NC(=O)[C@H](C(C)C)NC(=O)[C@H](CC(C)C)NC(=O)[C@H](CCC(=O)O)NC(=O)CNC1=O [Compound 10]
< 100 nM: Kd (ASGPR) | EC50 [1] | Kd (IgG; read-out: IgG SPR Binding Kd) | EC50 (HepG2 cells; read-out: Uptake Assay EC50)

CC(C)C[C@@H]1NC(=O)[C@H](Cc2c[nH]cn2)NC(=O)[C@H](Cc2c[nH]c3ccccc23)NC(=O)[C@H](C)NC(=O)[C@@H]2CSSC[C@H](NC(=O)[C@H](Cc3c[nH]c4ccccc34)NC(=O)[C@H](C(C)C)NC(=O)[C@H](CC(C)C)NC(=O)[C@H](CCC(=O)O)NC(=O)CNC1=O)C(=O)N[C@@H]([C@@H](C)O)C(=O)N1CCC[C@@H]1C(=O)N1C[C@@H](NC(=O)CCOCCOCCOCCOCCNC(=O)CCCc3cn(CCCCCC(=O)NC(COCCC(=O)NCCOCCOCCOCCOC[C@H]4OC[C@H](Nc5nccc(C(F)(F)F)n5)[C@@H](O)[C@H]4O)COCCC(=O)NCCOCCOCCOCCOC[C@H]4OC[C@H](Nc5nccc(C(F)(F)F)n5)[C@@H](O)[C@H]4O)nn3)C[C@H]1C(=O)N[C@@H](CC(=O)O)C(=O)N2 [Compound 16]
< 100 nM: Kd (ASGPR) | Kd (ASGPR; read-out: ASGPR KD) | EC50 [1] | EC50 ([1]; read-out: Ternary Complex EC50) | Kd (IgG; [2]) | Kd (IgG; SPR, read-out: IgG KD) | EC50 (HepG2 cells; [3]) | EC50 (HepG2 cells; [4])

O=C(CCOCC(COCCC(=O)NCCOCCOCCOCCOC[C@H]1OC[C@H](Nc2nccc(C(F)(F)F)n2)[C@@H](O)[C@H]1O)NC(=O)COCCOCCOCCNc1ccc([N+](=O)[O-])cc1[N+](=O)[O-])NCCOCCOCCOCCOC[C@H]1OC[C@H](Nc2nccc(C(F)(F)F)n2)[C@@H](O)[C@H]1O [Compound 32, 3,3′-((2-(2-(2-(2-(2-((2,4-dinitrophenyl)amino)ethoxy)ethoxy)ethoxy)acetamido)propane-1,3-diyl)bis(oxy))bis(N-(1-((2R,3R,4R,5S)-3,4-dihydroxy-5-((4-(trifluoromethyl)pyrimidin-2-yl)amino)tetrahydro-2H-pyran-2-yl)-2,5,8,11-tetraoxatridecan-13-yl)propanamide)]
< 100 nM: Kd (ASGPR) | EC50 [1, 5] | EC50 ([1]; Ternary Complex EC50 (nM), HepG2 cells, 100 nM AF488-labeled antibody, 1 hour at 4° C., class symbols) | Kd (IgG; SPR, read-out: IgG KD) | EC50 (HepG2 cells; [4]) | EC50 (HepG2 cells; Homo sapiens, HepG2, 6 h, read-out: Uptake Assay EC50 (nM))

CC(C)C[C@@H]1NC(=O)[C@H](Cc2cnc[nH]2)NC(=O)[C@H](Cc2c[nH]c3ccccc23)NC(=O)[C@H](C)NC(=O)[C@@H]2CSSC[C@H](NC(=O)[C@H](Cc3c[nH]c4ccccc34)NC(=O)[C@H](C(C)C)NC(=O)[C@H](CC(C)C)NC(=O)[C@H](CCC(=O)O)NC(=O)CNC1=O)C(=O)N[C@@H]([C@@H](C)O)C(=O)N1CCC[C@@H]1C(=O)N1C[C@@H](NC(=O)COCCOCC(=O)NC[C@H]3OC[C@H](Nc4cncc(C(F)(F)F)n4)[C@@H](O)[C@H]3O)C[C@H]1C(=O)N[C@@H](CC(=O)O)C(=O)N2 [Compound 42]
< 100 nM: Kd (ASGPR) | EC50 [1] | EC50 ([1]; read-out: Ternary Complex EC50) | Kd (IgG; SPR, read-out: IgG KD) | EC50 (HepG2 cells; [3]) | EC50 (HepG2 cells; [4])

CC(C)C[C@@H]1NC(=O)[C@H](Cc2c[nH]cn2)NC(=O)[C@H](Cc2c[nH]c3ccccc23)NC(=O)[C@H](C)NC(=O)[C@@H]2CSSC[C@H](NC(=O)[C@H](Cc3c[nH]c4ccccc34)NC(=O)[C@H](C(C)C)NC(=O)[C@H](CC(C)C)NC(=O)[C@H](CCC(=O)O)NC(=O)CNC1=O)C(=O)N[C@@H]([C@@H](C)O)C(=O)N1CCC[C@@H]1C(=O)N1C[C@@H](NC(=O)CNC(COCCC(=O)NCCOCCOCCOCCOC[C@H]3OC[C@H](Nc4cncc(C(F)(F)F)n4)[C@@H](O)[C@H]3O)COCCC(=O)NCCOCCOCCOCCOC[C@H]3OC[C@H](Nc4cncc(C(F)(F)F)n4)[C@@H](O)[C@H]3O)C[C@H]1C(=O)N[C@@H](CC(=O)O)C(=O)N2 [Compound 45]
< 100 nM: Kd (ASGPR) | EC50 [1] | Kd (IgG; SPR, read-out: IgG KD) | EC50 (HepG2 cells; [3])

CC(C)C[C@@H]1NC(=O)[C@H](Cc2cnc[nH]2)NC(=O)[C@H](Cc2c[nH]c3ccccc23)NC(=O)[C@H](C)NC(=O)[C@@H]2CSSC[C@H](NC(=O)[C@H](Cc3c[nH]c4ccccc34)NC(=O)[C@H](C(C)C)NC(=O)[C@H](CC(C)C)NC(=O)[C@H](CCC(=O)O)NC(=O)CNC1=O)C(=O)N[C@@H]([C@@H](C)O)C(=O)N1CCC[C@@H]1C(=O)N1C[C@@H](NC(=O)CCCc3cn(C[C@H]4OC[C@H](Nc5cncc(C(F)(F)F)n5)[C@@H](O)[C@H]4O)nn3)C[C@H]1C(=O)N[C@@H](CC(=O)O)C(=O)N2 [Compound 51]
< 100 nM: Kd (ASGPR) | Kd (ASGPR; read-out: ASGPR KD, SPR) | EC50 ([1]; HepG2 cells, 100 nM AF488-labeled antibody, 1 hour at 4° C., class symbols, read-out: Ternary Complex EC50) | EC50 [1, 5] | Kd (IgG; SPR, read-out: IgG KD) | EC50 (HepG2 cells; [3]) | EC50 (HepG2 cells; [4])

CC(C)C[C@@H]1NC(=O)[C@H](Cc2c[nH]cn2)NC(=O)[C@H](Cc2c[nH]c3ccccc23)NC(=O)[C@H](C)NC(=O)[C@@H]2CSSC[C@H](NC(=O)[C@H](Cc3c[nH]c4ccccc34)NC(=O)[C@H](C(C)C)NC(=O)[C@H](CC(C)C)NC(=O)[C@H](CCC(=O)O)NC(=O)CNC1=O)C(=O)N[C@@H]([C@@H](C)O)C(=O)N1CCC[C@@H]1C(=O)N1C[C@@H](NC(=O)CCCc3cn(CCCCCC(=O)NC(COCCC(=O)NCCOCCOCCOCCOC[C@H]4OC[C@H](Nc5nccc(C(F)(F)F)n5)[C@@H](O)[C@H]4O)COCCC(=O)NCCOCCOCCOCCOC[C@H]4OC[C@H](Nc5nccc(C(F)(F)F)n5)[C@@H](O)[C@H]4O)nn3)C[C@H]1C(=O)N[C@@H](CC(=O)O)C(=O)N2 [Compound 53]
< 100 nM: Kd (ASGPR) | EC50 [1] | EC50 ([1]; read-out: Ternary Complex EC50) | Kd (IgG; [2]) | Kd (IgG; SPR, read-out: IgG KD) | EC50 (HepG2 cells; [3]) | EC50 (HepG2 cells; [4])

CC(C)C[C@@H]1NC(=O)[C@H](Cc2cnc[nH]2)NC(=O)[C@H](Cc2c[nH]c3ccccc23)NC(=O)[C@H](C)NC(=O)[C@@H]2CSSC[C@H](NC(=O)[C@H](Cc3c[nH]c4ccccc34)NC(=O)[C@H](C(C)C)NC(=O)[C@H](CC(C)C)NC(=O)[C@H](CCC(=O)O)NC(=O)CNC1=O)C(=O)N[C@@H]([C@@H](C)O)C(=O)N1CCC[C@@H]1C(=O)N1C[C@@H](NC(=O)COc3ccc(CC(=O)NC[C@H]4OC[C@H](Nc5cncc(C(F)(F)F)n5)[C@@H](O)[C@H]4O)cc3)C[C@H]1C(=O)N[C@@H](CC(=O)O)C(=O)N2 [Compound 61]
< 100 nM: Kd (ASGPR) | EC50 [1, 5] | Kd (IgG; SPR, read-out: IgG KD) | EC50 (HepG2 cells; [4])

CC(C)C[C@@H]1NC(=O)[C@H](Cc2cnc[nH]2)NC(=O)[C@H](Cc2c[nH]c3ccccc23)NC(=O)[C@H](C)NC(=O)[C@@H]2CSSC[C@H](NC(=O)[C@H](Cc3c[nH]c4ccccc34)NC(=O)[C@H](C(C)C)NC(=O)[C@H](CC(C)C)NC(=O)[C@H](CCC(=O)O)NC(=O)CNC1=O)C(=O)N[C@@H]([C@@H](C)O)C(=O)N1CCC[C@@H]1C(=O)N1C[C@@H](NC(=O)CC(=O)NC[C@H]3OC[C@H](Nc4cncc(C(F)(F)F)n4)[C@@H](O)[C@H]3O)C[C@H]1C(=O)N[C@@H](CC(=O)O)C(=O)N2 [Compound 62]
< 100 nM: Kd (ASGPR) | EC50 [1, 5] | Kd (IgG; SPR, read-out: IgG KD) | EC50 (HepG2 cells; [4])
